Broadly, the pIC50 is the negative decadic logarithm of the IC50, by convention in mol/L.

pIC50: −log10 of the molar value.

Experimental findings from patent US20120136003A1, “COMPOUNDS, COMPOSITIONS AND METHODS COMPRISING 1,3,4-OXADIAZOLE DERIVATIVES” (Institute For Oneworld Health, priority 2009, published 2012) are described below.

In test [1] the test system is mice (CD1 strain), intestinal loops with cholera toxin (CTX). Conditions: mouse, in vivo.
The target in test [2] is T1, CFTR (Homo sapiens, UniProt P13569). Put plainly: T84 assay (FLIPR membrane potential). The class given is cell-based. More on the design: Human colonic T84 cells are acquired from the European Collection of Cell Cultures (ECACC); host or cells: T84 human colonic cells. As for the experimental part:
(§1) For example, Human colonic T84 cells can be acquired from the European Collection of Cell Cultures (ECACC) and grown in standard culture conditions as described by the supplier. On the day before assay 25,000 T84 cells per well are plated into standard black walled, clear bottom 384-well assay plates in standard growth medium consisting of DMEM:F12 with 10% FBS and incubated overnight. On the day of the assay the plates are washed using a standard assay buffer (HBSS with 10 mM Hepes) and incubated for 15 minutes in serum free cell culture medium before the addition of a commercially available membrane potential sensitive fluorescent dye (FLIPR Red membrane potential dye, Molecular Devices Corporation). T84 cells are incubated with the FLIPR Red membrane potential dye for 45 minutes in the presence and absence of test compound before being transferred to a commercially available fluorescence imaging plate reader (FLIPR384, Molecular Devices Corporation). Fluorescence levels are monitored continuously every second for 150 seconds; after an initial 10 second baseline, CFTR channel activity is stimulated through the addition of 10 μM forskolin in the presence of 100 μM of the phosphodiesterase inhibitor iso-butyl-methylxanthine (IBMX). Addition of the forskolin leads to the activation of intracellular adenylyl cylase 1, elevating cAMP levels and results in the phosphorylation and opening of CFTR anion channels. CFTR channel opening causes chloride ion efflux and subsequent depolarization of the cells, which is measured by an increase in fluorescence. CFTR inhibitor compounds prevent cell depolarization and the associated increase in fluorescence.
as §1, with “Human colonic” for “For example, Human colonic”, “T84 cells are acquired from” for “T84 cells can be acquired from”, “(ECACC) and are grown in” for “(ECACC) and grown in”, “with 10 Mm Hepes) and” for “with 10 mM Hepes) and”, “1, elevating Camp levels and” for “1, elevating cAMP levels and”
Target sequence in this assay (P13569 whole entry): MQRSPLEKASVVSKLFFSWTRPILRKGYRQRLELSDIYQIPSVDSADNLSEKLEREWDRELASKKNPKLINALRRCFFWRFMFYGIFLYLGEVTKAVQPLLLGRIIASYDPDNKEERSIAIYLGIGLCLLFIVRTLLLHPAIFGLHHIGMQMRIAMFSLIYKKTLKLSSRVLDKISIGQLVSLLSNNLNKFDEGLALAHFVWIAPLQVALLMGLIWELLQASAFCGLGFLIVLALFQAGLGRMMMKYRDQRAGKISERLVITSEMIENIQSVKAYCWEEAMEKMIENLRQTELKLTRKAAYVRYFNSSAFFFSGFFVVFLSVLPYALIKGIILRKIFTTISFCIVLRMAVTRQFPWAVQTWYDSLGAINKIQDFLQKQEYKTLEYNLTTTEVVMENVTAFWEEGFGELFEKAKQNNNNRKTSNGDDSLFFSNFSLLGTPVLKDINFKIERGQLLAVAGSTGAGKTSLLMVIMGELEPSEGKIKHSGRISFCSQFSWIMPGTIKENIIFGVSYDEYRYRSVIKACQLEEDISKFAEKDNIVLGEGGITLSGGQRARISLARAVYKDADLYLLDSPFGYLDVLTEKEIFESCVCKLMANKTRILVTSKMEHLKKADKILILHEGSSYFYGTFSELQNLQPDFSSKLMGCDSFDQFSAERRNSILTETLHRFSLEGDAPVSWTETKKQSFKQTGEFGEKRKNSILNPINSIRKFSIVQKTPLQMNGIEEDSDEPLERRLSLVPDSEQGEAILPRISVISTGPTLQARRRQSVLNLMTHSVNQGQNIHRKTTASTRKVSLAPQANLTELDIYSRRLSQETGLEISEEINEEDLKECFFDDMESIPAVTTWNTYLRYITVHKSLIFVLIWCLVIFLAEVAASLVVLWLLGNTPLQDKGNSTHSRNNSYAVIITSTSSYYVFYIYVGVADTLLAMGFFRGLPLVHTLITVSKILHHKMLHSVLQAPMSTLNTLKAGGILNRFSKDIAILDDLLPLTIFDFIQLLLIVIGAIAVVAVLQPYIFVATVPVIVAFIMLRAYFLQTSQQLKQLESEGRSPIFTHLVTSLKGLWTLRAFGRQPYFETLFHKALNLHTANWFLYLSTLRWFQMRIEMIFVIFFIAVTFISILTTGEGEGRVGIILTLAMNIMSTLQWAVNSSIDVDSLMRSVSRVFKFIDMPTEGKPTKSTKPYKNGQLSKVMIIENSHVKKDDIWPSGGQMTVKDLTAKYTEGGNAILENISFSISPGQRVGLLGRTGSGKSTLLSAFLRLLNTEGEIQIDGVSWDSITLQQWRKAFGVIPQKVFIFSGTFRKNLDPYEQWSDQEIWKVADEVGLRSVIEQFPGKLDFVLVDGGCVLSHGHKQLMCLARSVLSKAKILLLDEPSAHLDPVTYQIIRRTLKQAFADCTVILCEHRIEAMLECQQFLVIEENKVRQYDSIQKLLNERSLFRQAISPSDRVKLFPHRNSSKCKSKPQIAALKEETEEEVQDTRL

The target in test [3] is T1, CFTR. Put plainly: CHO-CFTR IonWorks Quattro (IWQ) population patch clamp. More on the design: expressed in transfected cells; host or cells: CHO-K1 cells, stably transfected. Conditions: @-60 mV; room temperature. The format is cell-based. As for the experimental part:
Currents were recorded at room temperature (21-23° C.) using IonWorks® Quattro™ (Molecular Devices, Inc) Population Patch Clamp (PPC) mode automated electrophysiology recording techniques.
Before recording commenced, a T175 culture flask containing CHO-K^1 cells stably transfected with the CFTR gene were washed with 10 ml of Dulbecco's phosphate buffered saline (without Ca^2+ or Mg^2+) followed by addition of 1 ml of 0.05% Trypsin EDTA (Invitrogen, cat no. 25300054) to the flask. After 1-2 minutes incubation, flasks were gently tapped to lift the cells from the substrate and 10 ml of complete media added. Cells were spun at 1,000 rpm for 3 minutes, followed by re-suspension of the pellet in external buffer and use of the resulting cell suspension at a density of 2×10^6 cells per ml. The external solution used for recording was Dulbecco's phosphate buffered saline (Invitrogen, cat no. 14040091) and contained (in mM) 137.9 NaCl, 2.7 KCl, 0.901 CaCl2, 0.5 MgCl2.6H2O, 1.5 KH2PO4, 8.1 Na2HPO4.7H2O. The internal solution contained the following (in mM): 10 NaCl (Sigma, cat no. S7653), 90 KGluconate (Sigma, cat no. G4500), 30 KF (Sigma, cat no. 60238), 1 MgCl2 (Fluka, cat no. 63020), 5 EGTA (Sigma, cat no. E3889), 10 HEPES (Sigma, cat no. H3375); pH 7.4 with KOH. […]
On the technique in general: In patch-clamp work, channel activity is measured electrically.
Target sequence in this assay (P13569 whole entry, species assumed): as the sequence (P13569 whole entry) above

For test [4], the target named is T1, CFTR. Put plainly: CHO-CFTR assay (FLIPR assay). Also on record: expressed in transfected cells; host or cells: CHO-K1 cells, stably transfected. The class given is cell-based. Conditions: same assay conditions (FLIPR assay); read-out: IC50 value in the CHO-CFTR cell line.
Target sequence in this assay (P13569 whole entry, species assumed): as the sequence (P13569 whole entry) above

For the compound `O=C(c1nnc(-c2cc(Cl)c(O)c(Cl)c2)o1)N1CCN(c2cccc(C(F)(F)F)c2)CC1` [Compound 4, (5-(3,5-dichloro-4-hydroxyphenyl)-1,3,4-oxadiazol-2-yl)(4-(3-(trifluoromethyl)phenyl)piperazin-1-yl)methanone], the “closed loop % inhibition” value in test [1] is 92.5%. Also, the pIC50 against CFTR [2] is 4.77; against CFTR [3] it was 5.33; on CFTR [4] it was 4.97.
